Source: publication PMC10308769, “First reported double drug–drug interaction in a cancer renal patient under everolimus treatment: therapeutic drug monitoring and review of literature” (European Journal of Medical Research, 2023)
“Also recorded” adds a separate entry of the source. Where two headings read alike, the source gives them in different places. Values belong to the compound of their own block, whether it stands above or below them.

Experiments:
CYP3A4 = system: CYP3A4; set-up: method as in lexicomp and drugs databases; details: ref lexicomp and drugs databases; cited from earlier work
[1] = system: renal cell carcinoma (RCC); experiment: Clinical course of the case patient: toxicities, response, PFS; format: in vivo
Protocol: A person with smoking and epilepsy history was diagnosed from a stage pT3a renal carcinoma in December 2015. Radical right nephrectomy was performed in February 2016. In September 2018, a right lung segmentectomy was practiced due to lepidic adenocarcinoma growth. On February 2021 progression was detected with right adrenal massive bleeding, hilar adenopathy and left renal adrenal metastasis. Nivolumab was initiated as first-line treatment in May 2021 for intermediate-risk clear-cell RCC. […] In December 2021, new progression was detected and second-line treatment with cabozantinib 60 mg daily was started.
(§1) This finding was discussed within the multidisciplinary team, including the oncologist and the pharmacist, and a TDM plan was planned. Method used for analysis was ultra-high-performance liquid chromatography coupled to tandem mass spectrometry.
Everolimus dose was increased from 10 mg QD to 15 mg daily (administered 10 mg, 1 h before breakfast and 5 mg, 1 h before dinner). […] However, a second dose adjustment was needed, 10 mg BID, administered before meals. Two weeks and a month later, new TDM were planned and Cminss were 10.6 ng/ml and 8.7 ng/ml, respectively (Fig. 2). […] Unfortunately, everolimus treatment was stopped on July 2022, due to lung progression, pleural effusion, and respiratory insufficiency, and finally patient died.

[2] = set-up: method as in product label; details: ref product label, cited from earlier work
[3] = set-up: method as in PMID 15785960; details: single 2-mg dose everolimus with erythromycin 500 mg TID for 9 days; cited from earlier work
[4] = set-up: method as in PMID 25361989; details: cited from earlier work
renal cancer [5] = system: renal cancer; set-up: method as in PMID 27279544; details: renal cancer patients, second or third-line therapy; cited from earlier work
[6] = set-up: method as in earlier work; details: single oral 10 mg dose, cited from earlier work
breast cancer = system: breast cancer; set-up: method as in PMID 36188563; details: cited from earlier work
[7] = Therapeutic drug monitoring of everolimus in the case patient (UHPLC-MS/MS); format: in vivo; details: human, plasma, oral, co-medication carbamazepine and phenytoin, read-out: Cminss
Description: as §1

[8] = set-up: method as in PMID 24332451; details: cited from earlier work
[9] = set-up: method as in PMID 16187976; details: single 2 mg dose everolimus with verapamil 80 mg three times daily, 16 healthy subjects; cited from earlier work
[10] = set-up: method as in PMID 28762135; details: 10 patients, cited from earlier work
renal cancer [11] = system: renal cancer; set-up: method as in PMID 22209391; details: cited from earlier work

Compound: O=C1NC(=O)C(c2ccccc2)(c2ccccc2)N1 [phenytoin]
- classification of effect on CYP3A4 metabolism (CYP3A4): strong inducers

Compound: NC(=O)N1c2ccccc2C=Cc2ccccc21 [carbamazepine]
- classification of effect on CYP3A4 metabolism (CYP3A4): strong inducers

Compound: Nivolumab
- adverse events ([1]; nivolumab first-line treatment, case patient): dry mouth, grade II anorexia and grade I astheny; also recorded: no immune-mediated toxicities

- concentration at 1 month ([7]; 10 mg BID, everolimus 10 mg BID, a month later): 8.7 ng/mL
- concentration at 2 weeks ([7]; 10 mg BID, everolimus 10 mg BID, two weeks later): 10.6 ng/mL
- concentration at 4 weeks ([7]; 10 mg QD, everolimus 10 mg QD fasted, four weeks after starting treatment): 3.7 ng/mL
- concentration at 4 weeks ([7]; 15 mg daily (10 mg + 5 mg), everolimus 15 mg daily (10 mg + 5 mg), four weeks later): 6.4 ng/mL
Compound: CO[C@H]1C[C@@H]2CC[C@@H](C)[C@@](O)(O2)C(=O)C(=O)N2CCCC[C@H]2C(=O)O[C@H]([C@H](C)C[C@@H]2CC[C@@H](OCCO)[C@H](OC)C2)CC(=O)[C@H](C)/C=C(\C)[C@@H](O)[C@@H](OC)C(=O)[C@H](C)C[C@H](C)/C=C/C=C/C=C/1C [everolimus]
- time to peak concentration ([2]; oral): 1.3 to 1.8 h
- time to steady state [2]: 7 to 14 days
- PFS ([1]; case patient, everolimus third line RCC): 3.7 months
- toxicities ([1]; during everolimus treatment): no relevant toxicities were observed
- response to treatment ([1]; during everolimus treatment, third line RCC): stable disease; also recorded: stabilization disease
- toxicities ([1]; everolimus 10 mg QD, four weeks after starting treatment): no toxicities
- toxicities ([1]; everolimus 15 mg daily, four weeks later): without relevant toxicities
- increase of AUC [3]: 4.4 fold
- increase of Cmax [3]: 2.0 fold
- plasma concentration ([4]; before fenofibrate): 10.1 ng/mL
- plasma concentration ([4]; with fenofibrate): 4.2 ng/mL
- median PFS (renal cancer [5]): 3.8 months
- reduction of AUC ([6]; high-fat meal vs fasting): 33%
- reduction of Cmax ([6]; high-fat meal vs fasting): 54%
- reduction of AUC ([6]; low-fat meal vs fasting): 22%
- reduction of Cmax ([6]; low-fat meal vs fasting): 42%
- median PFS (breast cancer; breast cancer patients): 13.7 months
- median Cminss in patients with dose-limiting toxicities (breast cancer): 19 ng/mL
- patients with Cminss below 10 ng/ml (breast cancer): 50%
- mean Cminss ([8]; 945 patients, lung, renal and neuroendocrine tumors): 15.65 ng/mL
- patients achieving optimal plasmatic concentrations (10-30 ng/ml) ([8]; lung cancer): 55.2%
- patients achieving optimal plasmatic concentrations (10-30 ng/ml) ([8]; neuroendocrine tumors): 45%
- patients achieving optimal plasmatic concentrations (10-30 ng/ml) ([8]; renal cancer): 62.9%
- decrease of Cminss ([8]; with CYP3A4 inducers): 7%
- increase of Cminss ([8]; with strong CYP3A4 inhibitors): 10%
- increase of AUC [9]: 3.5 fold
- increase of Cmax [9]: 2.3 fold
- AUC ([10]; 5 mg twice daily): 436 ng·h/mL
- maximum concentration (Cmax) ([10]; 5 mg twice daily): 40.3 ng/mL
- minimum steady-state concentration (Cminss) ([10]; 5 mg twice daily): 13.7 ng/mL
- AUC ([10]; 10 mg once daily): 435 ng·h/mL
- maximum concentration (Cmax) ([10]; 10 mg once daily): 61.5 ng/mL
- minimum steady-state concentration (Cminss) ([10]; 10 mg once daily): 9.6 ng/mL
- median PFS (renal cancer [11]; renal cancer patients, comparison group before the drop (earlier line)): 5.4 months
- median PFS (renal cancer [11]; third line, previously treated with two anti-VEGFR tyrosine kinase inhibitor): 4 months

Compound: COc1cc2nccc(Oc3ccc(NC(=O)C4(C(=O)Nc5ccc(F)cc5)CC4)cc3)c2cc1OC [cabozantinib]
- adverse events ([1]; cabozantinib 60 mg daily second-line treatment, case patient): hypertension grade I; also recorded: nausea and diarrhea grade I
